Data reported in patent publication US20140371165A1, “Identification of NSC23925 Isomers to Reverse Multidrug Resistance in Human Cancers” (priority 2012, published 2014).

Tests used:
SKOV-3TR = assay: MTT cytotoxicity assay and reversal of MDR in SKOV-3TR; format: cell-based, human; details: for potency of isomer on reversing drug resistance: with paclitaxel, MTT 6 days post-treatment; for IC50: Homo sapiens, SKOV3TR, 144 h, without NSC23925b, MTT, 6 days, read-out: IC50 of chemotherapy drug alone
Description: (§1) A panel of parental cancer cell line and their daughter resistant cell lines, displaying MDR phenotype were used in this study. Human ovarian cancer cell line SKOV-3, breast cancer cell line MCF-7 and colon cancer cell line SW480, the osteosarcoma cell line U-2OS, KHOS, uterine sarcoma cell line MESSA and its doxorubicin selected drug resistant cell line MESSA/Dx5, non-small cell lung cancer cell line H-69 and its doxorubicin selected drug resistant cell line H-69AR (overexpress MRP1) were obtained from the ATCC (Rockville, Md.). Dr. Efstathios Gonos (Institute of Biological Research & Biotechnology, Athens, Greece) provided the doxorubicin resistant U-2OS R2 (referred in the text below as U-2OSDR), KHOS R2 cell lines. Dr. Erasmus Schneider (Wadsworth Center, Albany) provided the mitoxantrane resistant breast cancer MCF-7/MX (overexpress BCRP) cell line. All the cell lines were cultured in RPMI 1640 (Invitrogen, Carlsbad, Calif.) supplemented with 10% fetal bovine serum, 100-units/ml penicillin and 100 μg/ml streptomycin (Invitrogen). Cells were incubated at 37° C. in 5% CO2-95% air atmosphere and passaged when near confluent monolayers were achieved using 2% trypsin-EDTA solution. […] The fresh chemotherapy drugs were obtained from the pharmacy at the Massachusetts General Hospital and stored at −20° C.
(§2) To evaluate for reversal of Pgp-mediated MDR, SKOV-3TR, MCF-7adr and SW480TR cell lines were seeded into 96-well tissue culture plate at 2,000 cells per well with varying concentrations of chemotherapy drugs and NSC23925b for 6 days. Cell proliferation IC50 (concentration required for 50% inhibition) and MDR reversal IC50 were determined from dose-response curves carried out in triplicate in 96-well plate. Fold of reverse resistance for individual drugs were defined as the IC50 of MDR cells without NSC23925b treatment divided by the IC50 of MDR cells treated with NSC23925b. […] Drug cytotoxicity was assessed in vitro using the MTT assay as previously described. […] Response curves were fitted with use of GraphPad PRISM 4 software (GraphPad Software).
Structure and activity relationship (SAR) of the four NSC23925 isomers for reversing MDR were evaluated in human ovarian cancer MDR cell line SKOV-3TR by MTT assay (FIGS. 1A-D). Cells were treated with the paclitaxel and NSC23925 diastereomers NSC23925a (FIG. 1A), NSC23925b (FIG. 1B), NSC23925c (FIG. 1C) and NSC23925d (FIG. 1D) in RPMI1640 complete media at the indicated concentrations. The relative sensitivity of each line to paclitaxel was determined by MTT analysis 6 days post-treatment.

[1] = Solubility in organic solvents; format: physicochemical; details: volume of methanol for 5 milligram
MCF-7adr = assay: MTT cytotoxicity assay and reversal of MDR in MCF-7adr; format: cell-based, human; details: Homo sapiens, NCI/ADR-RES, 144 h, without NSC23925b, MTT, 6 days, read-out: IC50 of chemotherapy drug alone
Description: as §1, §2
(§3) MCF-7adr and SW480TR cells were treated with paclitaxel (FIGS. 2A-B), doxorubicin (FIGS. 2C-D) or mitoxantrane (FIGS. 2E-F) and NSC23925b in RPMI1640 complete media at the indicated concentrations. The relative sensitivity of each line to the indicated drugs was determined by MTT analysis 6 days post-treatment.

SW480TR = assay: MTT cytotoxicity assay and reversal of MDR in SW480TR; format: cell-based, human; details: Homo sapiens, 144 h, without NSC23925b, MTT, 6 days, read-out: IC50 of chemotherapy drug alone
Description: as §1, §2, §3

[2] = tested on: SKOV-3TR xenograft tumors; assay: SKOV-3TR xenograft tumor growth in nude mice; details: alone; i.p. twice a week for two weeks; paclitaxel 20 mg/kg or NSC23925b 40 mg/kg
Description: The Crl:SHO-Prkdc^SCIDHr^hr nude female mice at approximately 3-4 weeks of age were purchased from The Charles River Laboratories (Ann Arbor, Mich.). Animal studies were carried out with protocols approved by the Massachusetts General Hospital Subcommittee on Research Animal Care (SRAC). To determine the effect of NSC23925b on paclitaxel sensitivity in xenograft model, 5×10^6 SKOV-3TR cells were injected subcutaneously with matrigel (BD Biosciences, San Jose, Calif.) on day one. Two weeks after injection, the mice were divided into four groups to start the treatments. Group one was received intraperitoneal (i.p) injection with normal saline, group two with paclitaxel (20 mg/kg), group three with NSC23925b (40 mg/kg). […] All four groups were treated twice a week for two weeks. The health of the mice and evidence of tumor growth were examined daily. Tumors were measured twice a week with a digital caliper. Tumor volume (mm^3) was calculated as (W^2×L)/2, where W is width and L is length. The curve of tumor growth was drawn according to tumor volume by using of GraphPad PRISM 4 software.
To further evaluate the effects of NSC23925b and paclitaxel combination therapy on the tumor growth of resistant cells, the growth of xenograft tumors were examined. A well-characterized ovarian cancer MDR cell line SKOV-3TR was chosen for in vivo studies. […] Tumors were measured twice a week with a digital caliper. Tumor volume (mm^3) was calculated as (W^2×L)/2, where W is width and L is length (FIG. 5A). Representative images of dissected tumor tissues from treated nude mice.

| 5 milligram solubility in methanol [1] | SMILES | potency of isomer on reversing drug resistance (SKOV-3TR) | IC50 (SKOV-3TR) | IC50 (MCF-7adr) | IC50 (SW480TR) | effect on paclitaxel resistant tumor cell growth, single agent [2] |
| --- | --- | --- | --- | --- | --- | --- |
| 150 µL | COc1ccc(-c2cc([C@@H](O)[C@H]3CCCCN3)c3ccccc3n2)cc1.Cl (single isomer, unassigned) [NSC23925c, (2-(4-methoxyphenyl)quinolin-4-yl)(piperidin-2-yl)methanol hydrochloride] | modest but lesser activity | – | – | – | – |
| 150 µL | COc1ccc(-c2cc([C@H](O)[C@@H]3CCCCN3)c3ccccc3n2)cc1.Cl (single isomer, unassigned) [NSC23925d, (2-(4-methoxyphenyl)quinolin-4-yl)(piperidin-2-yl)methanol hydrochloride] | modest but lesser activity | – | – | – | – |
| – | COc1cccc2c1C(=O)c1c(O)c3c(c(O)c1C2=O)C[C@@](O)(C(=O)CO)C[C@@H]3O[C@H]1C[C@H](N)[C@H](O)[C@H](C)O1 [Doxorubicin, reference compound] | – | 38500 ± 2600 nM | 3800 ± 120 nM | 840 ± 160 nM | – |
| – | O=C1c2c(O)ccc(O)c2C(=O)c2c(NCCNCCO)ccc(NCCNCCO)c21 [Mitoxantrane, reference compound] | – | 460 ± 60 nM | 320 ± 60 nM | 270 ± 30 nM | – |
| 650 µL | COc1ccc(-c2cc([C@@H](O)[C@@H]3CCCCN3)c3ccccc3n2)cc1.Cl [NSC23925a, (2-(4-methoxyphenyl)quinolin-4-yl)(piperidin-2-yl)methanol hydrochloride] | least potency | – | – | – | – |
| – | CC(=O)O[C@H]1C(=O)[C@@]2(C)[C@H]([C@H](OC(=O)c3ccccc3)[C@]3(O)C[C@H](OC(=O)[C@H](O)[C@@H](NC(=O)c4ccccc4)c4ccccc4)C(C)=C1C3(C)C)[C@]1(OC(C)=O)CO[C@@H]1C[C@@H]2O [Paclitaxel, reference compound] | – | 570 ± 30 nM | 620 ± 120 nM | 120 ± 80 nM | no significant effects |
